# Data published in US12428416B2 (California Institute of Technology, priority 2018, dated 2025).
# What was measured:
# [1] = tested on: drug-sensitive cell lines of Table 4; test: Cell line growth retardation assay, average over sensitive cohort; type: cell-based, Human; conditions: Homo sapiens, 144 h; geometric mean of IC50s over sensitive cohort (Table 4); 6 days growth; read-out: AvgSens IC50
# Procedure: (§1) Cell Line Growth Retardation Assay
# (§2) Cells were seeded at densities of 1,000-5,000 cells per well in 48-well tissue culture plates. After a 24 h rest period, cells were treated with compound at 10 μM, 2 μM, 0.4 μM, 0.08 μM, 0.016 μM, and 0.0032 μM. A group of cells were treated with the vehicle in which the compound was prepared and served as a control. The cells were grown in the presence of compounds for 6 days and were counted on day 0 and day 6. All cell counting was performed using a Synentec Cellavista plate imager. […] Growth inhibition was calculated as a ratio of cell population doublings in the presence of compound versus the absence of compound. […] IC50 values for each compound were calculated by fitting curves to data points from each dose-response assay using the Proc NLIN function in SAS for Windows version 9.2 (SAS Institute, Inc.).
# (§3) Designation of Sensitivity and Resistant Cohorts and Calculation of Average IC50 Values
# (§4) Human cancer cell lines were grouped as “sensitive” or “resistant” to ERK1 inhibition based on whether their growth was retarded by KO-947 (i.e., 1,5,6,8-tetrahydro-6-(phenylmethyl)-3-(4-pyridinyl)-7H-pyrazolo[4,3-g]quinazolin-7-one) and SCH772984 (i.e., (3R)-1-[2-oxo-2-[4-[4-(2-pyrimidinyl)phenyl]-1-piperazinyl]ethyl]-N-[3-(4-pyridinyl)-1H-indazol-5-yl]-3-pyrrolidinecarboxamide) (data not shown; see Table 4). These sensitive and resistant cohorts were interrogated for response to each compound, and IC50s were calculated for each cell line using the same technique described above. Average IC50s for the sensitive and resistant cohorts were calculated as geometric means of the group.
# [2] = tested on: phosphorylated RSK (pRSK) in M275 cells; test: Western Blot for Total and pRSK; type: cell-based, human; conditions: treatment for 4.5 hours and 24 hours, 200 nM
# Procedure: Western Blot for Total and pRSK
# For Western blot assays (see FIG. 14), protein lysates were obtained from either the M275 or M202 human melanoma cancer cell lines. For assay, cells were plated on 10 cm dishes and treated 24 hours later with either 200 nM of test compound in DMSO or DMSO control for 4.5 or 24 hours. After the treatment period, cells were washed twice in ice-cold PBS and lysed for 15 minutes at 4° C. using a mild lysis buffer (Cell Signaling Technology) containing a mixture of protease inhibitors (Calbiochem) and 1 mmol/L phenlymethylsulfonlyfluoride. Insoluble material was removed by centrifugation at 10,000×g for 10 minutes. Protein concentration of each sample was quantified by BCA (Pierce), resolved by SDS-PAGE, and transferred to nitrocellulose membranes (iBlot, Invitrogen Life Technology). Total (32D7, Cell Signaling Technologies) and phosphorylated ([…]; D1E9, Cell Signaling Technology) RSK protein were detected using the indicated antibody clones. All blots were repeated in duplicate and relative levels of individual proteins compared to a loading control (α-tubulin) (11H10; Cell Signaling Technology) were quantitated using the ECL Plus chemifluorescent reagent (Amersham Biosciences) and the ChemiDoc™ Touch Imaging System (BioRad).
# ERK2 = ERK2 (Homo sapiens, UniProt P28482); test: ERK1 and 2 Enzymatic Inhibition Assay (ERK2); type: biochemical; conditions: 10 assay concentrations 2×10^−6 M to 6×10^−11 M, 1% DMSO
# Procedure: (§5) ERK1 and 2 Enzymatic Inhibition Assay
# (§6) For the Ki determination assay, 200 μM stock solutions of compounds were subjected to a serial, semi-logarithmic dilution using 100% DMSO as a solvent. 10 distinct concentrations were prepared, with a dilution endpoint of 6×10^−9 M in 100% DMSO. 100% DMSO was used as a control. 10 μL from each of the serial dilutions were aliquoted into separate wells of a 96-well plate and 90 μL of water were added to each of those wells. The plate was shaken thoroughly, and 5 μL from each of the plate's wells were transferred into wells of the assay plate. The final volume of wells in the assay plate was 50 μL. All compounds were tested at 10 assay concentrations in the range from 2×10^−6 M to 6×10^−11 M. The final DMSO concentration in the wells of the assay plate was 1% in all cases.
# [3] = Compound metabolic stability in hepatocytes; type: in vitro ADME; conditions: hepatocytes from mice and rats (species not given); class symbols without key
# Procedure: The metabolic stability of compounds was determined in hepatocytes from mice and rats. Compounds were diluted to 5 μM in Williams' Medium E from 10 mM stock solutions. 10 μL of each compound was aliquoted into a well of a 96-well plate and reactions were started by aliquoting 40 μL of a 625,000 cells/mL suspension into each well. The plate was incubated at 37° C. with 5% CO2. At each corresponding time point, the reaction was stopped by quenching with ACN containing internal standards (IS) at a 1:3. Plates were shaken at 500 rpm for 10 min, and then centrifuged at 3,220×g for 20 minutes. Supernatants were transferred to another 96-well plate containing a dilution solution. Supernatants were analyzed by LC/MS/MS.
# Compound half-life was estimated using the following equation: % Remaining Compound=Peak Area Ratios of Tested Compound vs. Internal Standard at End Point/Peak Area Ratios of Tested Compound vs. Internal Standard at Start Point Mouse Xenograft Studies
# [4] = tested on: drug-resistant cell lines of Table 4; test: Cell line growth retardation assay, average over resistant cohort; type: cell-based, Human; conditions: Homo sapiens, 144 h; geometric mean of IC50s over resistant cohort (Table 4); 6 days growth; read-out: AvgRes IC50
# Procedure: as §1, §2, §3, §4
# ERK1 = ERK1 (Homo sapiens, UniProt P27361); test: ERK1 and 2 Enzymatic Inhibition Assay (ERK1); type: biochemical; conditions: 10 assay concentrations 2×10^−6 M to 6×10^−11 M, 1% DMSO
# Procedure: as §5, §6
# [5] = Mouse Maximum Tolerated Dose Studies; type: in vivo; conditions: mice, oral gavage (PO)
# Procedure: Mouse Maximum Tolerated Dose Studies
# For maximum tolerated dose (MTD) determination studies, non-tumor bearing CD-1 athymic nude mice were randomized into […] treatment groups (5 mice per group) and treated with either 400, 300, 200, 100, 50 or 25 mg/kg of compound by daily PO, or 200, 100, 50, 25, or 12.5 mg/kg of compound twice daily PO. Mice were weighed daily and % body weight loss was calculated relative to individual mouse body weights at the start of treatment. […] MTD was determined as the highest dose at which a mean body weight loss of <10% over 14 days of dosing was observed.
# Chain of ERK2 (P28482 whole entry): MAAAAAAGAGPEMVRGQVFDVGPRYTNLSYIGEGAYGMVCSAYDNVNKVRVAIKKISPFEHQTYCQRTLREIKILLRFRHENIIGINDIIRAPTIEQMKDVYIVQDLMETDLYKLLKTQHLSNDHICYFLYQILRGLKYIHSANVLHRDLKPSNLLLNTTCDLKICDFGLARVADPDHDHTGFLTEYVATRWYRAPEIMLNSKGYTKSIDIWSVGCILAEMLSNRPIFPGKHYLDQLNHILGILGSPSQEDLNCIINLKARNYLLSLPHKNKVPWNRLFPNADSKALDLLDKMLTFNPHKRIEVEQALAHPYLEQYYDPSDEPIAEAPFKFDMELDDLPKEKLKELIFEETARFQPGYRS
# Chain of ERK1 (P27361 whole entry): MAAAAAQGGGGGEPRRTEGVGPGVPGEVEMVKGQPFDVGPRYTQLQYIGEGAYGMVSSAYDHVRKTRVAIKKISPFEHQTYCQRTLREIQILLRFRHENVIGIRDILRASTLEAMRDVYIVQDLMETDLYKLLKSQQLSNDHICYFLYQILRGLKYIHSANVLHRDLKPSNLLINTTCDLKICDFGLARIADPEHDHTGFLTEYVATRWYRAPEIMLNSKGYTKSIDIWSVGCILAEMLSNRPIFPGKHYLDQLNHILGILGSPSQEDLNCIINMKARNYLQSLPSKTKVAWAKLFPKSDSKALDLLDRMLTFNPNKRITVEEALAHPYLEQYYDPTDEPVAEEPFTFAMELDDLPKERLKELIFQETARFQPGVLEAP
SMILES,Kd (ERK2) [nM],half-life at 1 µM [3] [min],Kd (ERK1) [nM],IC50 [1] [nM],level of phosphorylated RSK (pRSK) [2],IC50 [4] [nM],maximum tolerated QD dose ([5]; daily (QD)) [mg/kg],maximum tolerated BID dose ([5]; twice daily (BID)) [mg/kg]
"CC(NC(=O)c1ncc(-c2c[nH]c3ncc(N4CCOCC4)cc23)cn1)c1ccccc1 (stereo in doubt) [Compound 6, (R)-5-(5-morpholino-1H-pyrrolo[2,3-b]pyridin-3-yl)-N-(1-phenylethyl)pyrimidine-2-carboxamide]",≤ 10,> 25,≤ 10,≤ 250,decrease,> 500,200,100
"c1ccc([C@H]2COC(c3ncc(-c4c[nH]c5ncc(N6CCOCC6)cc45)cn3)=N2)cc1 [Compound 27, (S)-4-(3-(2-(4-phenyl-4,5-dihydrooxazol-2-yl)pyrimidin-5-yl)-1H-pyrrolo[2,3-b]pyridin-5-yl)morpholine]",≤ 10,> 25,≤ 10,> 500,–,> 500,–,–
"c1ccc([C@@H]2CN=C(c3ncc(-c4c[nH]c5ncc(N6CCOCC6)cc45)cn3)O2)cc1 [Compound 29, (R)-4-(3-(2-(5-phenyl-4,5-dihydrooxazol-2-yl)pyrimidin-5-yl)-1H-pyrrolo[2,3-b]pyridin-5-yl)morpholine]",11 to 100,> 25,11 to 100,> 500,–,> 500,–,–
"CC(NC(=O)c1ncc(-c2c[nH]c3ncc(N4CCOCC4)cc23)cn1)c1ccccc1 (stereo in doubt) [Compound 22, (S)-5-(5-morpholino-1H-pyrrolo[2,3-b]pyridin-3-yl)-N-(1-phenylethyl)pyrimidine-2-carboxamide]",> 100,> 25,> 100,> 500,–,> 500,–,–
"c1ccc([C@@H]2COC(c3ncc(-c4c[nH]c5ncc(N6CCOCC6)cc45)cn3)=N2)cc1 [Compound 28, (R)-4-(3-(2-(4-phenyl-4,5-dihydrooxazol-2-yl)pyrimidin-5-yl)-1H-pyrrolo[2,3-b]pyridin-5-yl)morpholine]",> 100,> 25,> 100,> 500,–,> 500,–,–
"O=C(c1ncc(-c2c[nH]c3ncc(N4CCOCC4)cc23)cn1)N1CCCC1c1ccccn1 (stereo not shown) [Compound 26, (5-(5-morpholino-1H-pyrrolo[2,3-b]pyridin-3-yl)pyrimidin-2-yl)(2-(pyridin-2-yl)pyrrolidin-1-yl)methanone]",> 100,< 25,11 to 100,> 500,–,> 500,–,–

# Continued, in another order:
Kd (ERK2) [nM],half-life at 1 µM [3] [min],Kd (ERK1) [nM],SMILES,IC50 [1] [nM],level of phosphorylated RSK (pRSK) [2],IC50 [4] [nM],maximum tolerated QD dose ([5]; daily (QD)) [mg/kg],maximum tolerated BID dose ([5]; twice daily (BID)) [mg/kg]
≤ 10,> 25,≤ 10,"C[C@@H](NC(=O)c1ncc(-c2c[nH]c3ncc(N4CCOCC4)cc23)cn1)c1cccc(Cl)c1 [Compound 20, (R)—N-(1-(3-chlorophenyl)ethyl)-5-(5-morpholino-1H-pyrrolo[2,3-b]pyridin-3-yl)pyrimidine-2-carboxamide]",≤ 250,–,> 500,–,–
≤ 10,> 25,≤ 10,"Cc1cccc(C(C)NC(=O)c2ncc(-c3c[nH]c4ncc(N5CCOCC5)cc34)cn2)c1 (stereo in doubt) [Compound 50, (R)-5-(5-morpholino-1H-pyrrolo[2,3-b]pyridin-3-yl)-N-(1-(m-tolyl)ethyl)pyrimidine-2-carboxamide]",≤ 250,–,> 500,–,–
≤ 10,> 25,≤ 10,"C[C@@H](NC(=O)c1ncc(-c2c[nH]c3ncc(N4CCOCC4)cc23)cn1)c1ccc(Cl)cc1 [Compound 25, (R)—N-(1-(4-chlorophenyl)ethyl)-5-(5-morpholino-1H-pyrrolo[2,3-b]pyridin-3-yl)pyrimidine-2-carboxamide]",> 500,–,> 500,–,–
≤ 10,< 25,≤ 10,"C[C@H](Cc1ccccc1)NC(=O)c1ncc(-c2c[nH]c3ncc(N4CCOCC4)cc23)cn1 [Compound 31, (R)-5-(5-morpholino-1H-pyrrolo[2,3-b]pyridin-3-yl)-N-(1-phenylpropan-2-yl)pyrimidine-2-carboxamide]",> 500,–,> 500,–,–
≤ 10,< 25,≤ 10,"O=C(NCCc1ccccc1)c1ncc(-c2c[nH]c3ncc(N4CCOCC4)cc23)cn1 [Compound 11, 5-(5-morpholino-1H-pyrrolo[2,3-b]pyridin-3-yl)-N-phenethylpyrimidine-2-carboxamide]",251 to 500,–,> 500,–,–
